Test results reported in article PMC6127852 (Journal of Enzyme Inhibition and Medicinal Chemistry, 2018).

Tests used:
polyA-polyU [1] = assay: UV–Vis titration with polyA-polyU (Scatchard); format: binding; conditions: PBS, pH 7; for Hypochromic effect H/%, polyA-polyU: UV–Vis titration, calculated by Scatchard equation; for log Ks, polyA-polyU: binding constant, Scatchard
Procedure: (§1) Polynucleotides were purchased as follows: polyG–polyC, polyA–polyU (Sigma-Aldrich, St. Louis, MO), calf thymus ctDNA (Aldrich). Polynucleotides were dissolved in PBS buffer, I = 0.05 mol dm^−3, pH 7.0. The calf thymus ctDNA was additionally sonicated and filtered through a […] filter. The polynucleotide concentration was spectroscopically determined as the concentration of nucleobases.
(§2) All UV–Vis absorbance measurements were conducted on a Perkin Elmer Lambda 25 spectrophotometer (Perkin Elmer, Waltham, MA). A quartz cell with a 1 cm path length was used for all absorbance studies. Compound stock solutions were 1 mM. The DNA/RNA at increasing ratios was then titrated into the compound buffer solution (1.48 × 10^−5 mol dm^−3) and the corresponding absorption spectra were recorded under the same conditions. All data were graphed and analysed using Origin software version 9.0 (OriginLab Corporation, Northampton, MA). The stability constants (Ks) and [bound compound]/[polynucleotide phosphate] ratios (n) were calculated according to the Scatchard Equation[63] ^, [64]. Values for Ks and n given in Table 1 all have satisfying correlation coefficients (0.99).
(§3) The binding constants logKs and the density of the binding sites n were calculated using Scatchard plot analysis. In addition, the binding constants Ks for compounds 8b and 8e were calculated only for titration data taken at the r ≥ 0.1, because below that ratio changes in absorption maxima were too small for accurate calculation (ΔA ≤ 0.04) (Table 1). The binding constants Ks and ratios n obtained by processing UV–Vis titration data using the Scatchard equation are summarised in Table 1.

E. faecium VRE = assay: Broth microdilution MIC, VRE clinical strain; format: cell-based; conditions: Enterococcus faecium
Procedure: (§4) The compounds were evaluated for their in vitro anti-bacterial activity against Gram-positive bacteria: S. aureus (ATCC 25923), MRSA, methicillin-sensitive S. aureus (MSSA), E. faecalis, vancomycin-resistant E. faecium (VREF), and Gram-negative bacteria: E. coli (ATCC 25925), P. aeruginosa (ATCC 27853), A. baumannii (ATCC 19606) and ESBL-producing K. pneumoniae (ATCC 27736). Standard broth microdilution method as recommended in guidelines of Clinical and Laboratory Standards Institute[61] ^, [65] ^, [66] was applied and the minimum inhibitory concentration (MIC) of compounds was tested. In short, testing was performed in U-bottomed 96-well sterile plastic microdilution trays (Falcon 3077, Becton Dickinson Labware, Franklin Lakes, NJ) in cation (Ca^2+ and Mg^2+) adjusted Mueller–Hinton broth medium (Becton Dickinson and Co., Cockeysville, MD). All testings were performed in triplicate.

E. faecalis ATCC 29212 = assay: Broth microdilution MIC, E. faecalis ATCC 29212; format: cell-based; conditions: Enterococcus faecalis, ATCC29212; Table S2
Procedure: as §4
(§5) The in vitro anti-bacterial activity of 5-amidinobenzimidazoles 7a–7e, 8a–8e, and 9a–9e was tested against Gram-positive bacteria including S. aureus (ATCC 25923), Enterococcus faecalis (ATCC 29212), and Gram-negative bacteria including E. coli (ATCC 25925), K. pneumoniae (ATCC 700803), P. aeruginosa (ATCC 27853), and Acinetobacter baumannii (ATCC 19606).

calf thymus ctDNA = assay: UV–Vis titration with ctDNA (Scatchard); format: binding; conditions: PBS, pH 7; for Hypochromic effect H/%, ctDNA: UV–Vis titration, calculated by Scatchard equation; for log Ks, ctDNA: binding constant, Scatchard
Procedure: as §1, §2, §3

[2] = test system: polyG-polyC (polyC-polyG) (RNA, polymer) G/C; assay: UV-Vis titration, Scatchard; conditions: PBS; for log Ks: I = 0.05 M (Table 1 says I = 0.015 M), cations not specified, I = 0.015 M (Methods: 0.05 M), pH 7, per base
P. aeruginosa ATCC 27853 = assay: Broth microdilution MIC, P. aeruginosa ATCC 27853; format: cell-based; conditions: Pseudomonas aeruginosa, ATCC27853; Table S2
Procedure: as §4, §5

polyA-polyU [3] = assay: Thermal melting (ΔTm) of polyA-polyU; format: binding; conditions: for ΔTm, polyA-polyU, r = 0.1: PBS, pH 7
Procedure: (§6) T m experiments were conducted with a Perkin Elmer Lambda 25 spectrophotometer in 1 cm quartz cuvettes. The absorbance of the DNA/RNA-compound complex was monitored at 260 nm as a function of temperature. The absorbance of the ligands was subtracted from every curve, and the absorbance scale was normalised. The ΔT m values were calculated by subtracting T m of the free nucleic acid from T m of the complex. Every reported ΔT m value was the average of at least two measurements. The error of ΔT m is ±0.5 °C. All data were graphed and analysed using Origin software version 9.0.
(§7) Denaturation experiments were carried out at different amounts of the compounds (r = 0.1, 0.3, 0.5, and 0.7 eq; r = [compound]/[polynucleotide]) with ctDNA and polyA-polyU.

[4] = test system: polyA-polyU (RNA, polymer) A/U; assay: UV-Vis titration, Scatchard; conditions: PBS, I = 0.05 M (Table 1 says I = 0.015 M), cations not specified, I = 0.015 M (Methods: 0.05 M), pH 7, per base
E. coli ATCC 25925 = assay: Broth microdilution MIC, E. coli ATCC 25925; format: cell-based; conditions: Escherichia coli, ATCC25925; Table S2
Procedure: as §4, §5

[5] = test system: polyA-polyU (RNA, polymer) A/U; assay: UV melting at 260 nm; conditions: PBS, I = 0.05 M, cations not specified, pH 7, r = 0.3 [compound]/[polynucleotide]
K. pneumonia ATCC 700803 = assay: Broth microdilution MIC, K. pneumoniae ATCC 700803; format: cell-based; conditions: Klebsiella pneumoniae, ATCC700803; Table S2
Procedure: as §4, §5

[6] = test system: bloodstream form T. brucei (strain 221); assay: Anti-trypanosomal screening, resazurin; format: cell-based; conditions: Trypanosoma brucei, mean of triplicate ± SEM
Procedure: Bloodstream form T. brucei (strain 221) were cultured in modified Iscove’s medium, as outlined[67] and trypanocidal assays were performed using 96-well microtitre plates. […] Resazurin was added after 48 h, the plates incubated for a further 16 h, and then read in a Spectramax plate reader (Molecular Devices Corporation, San Jose, CA). The data were analysed using GraphPad Prism (GraphPad, La Jolla, CA). Each drug concentration was tested in triplicate.

S. aureus ATCC 25923 = assay: Broth microdilution MIC, S. aureus ATCC 25923; format: cell-based; conditions: Staphylococcus aureus, ATCC25923; Table S2
Procedure: as §4, §5

A. baumannii ATCC 19606 = assay: Broth microdilution MIC, A. baumannii ATCC 19606; format: cell-based; conditions: Acinetobacter baumannii, ATCC19606; Table S2
Procedure: as §4, §5

S. aureus MSSA = assay: Broth microdilution MIC, MSSA clinical strain; format: cell-based; conditions: Staphylococcus aureus
Procedure: as §4

ctDNA = assay: Thermal melting (ΔTm) of ctDNA; format: binding, calf; conditions: PBS, pH 7; for ΔTm, ctDNA, r = 0.3: r = [compound]/[polynucleotide] 0.3, error ±0.5 °C
Procedure: as §6, §7

S. aureus MRSA = assay: Broth microdilution MIC, MRSA clinical strain; format: cell-based; conditions: Staphylococcus aureus, antibiotic-resistant clinical strain
Procedure: as §4

polyC-polyG = assay: UV–Vis titration with polyC-polyG (Scatchard); format: binding; conditions: PBS, pH 7; for Hypochromic effect H/%, polyC-polyG: UV–Vis titration, calculated by Scatchard equation; for log Ks, polyC-polyG: binding constant, Scatchard
Procedure: as §1, §2, §3

[7] = r = 0.3, first melting midpoint

SMILES | Hypochromic effect H/%, polyA-polyU (polyA-polyU [1]) [%] | log Ks, polyA-polyU (polyA-polyU [1]) | MIC (E. faecium VRE) [µg/mL] | MIC (E. faecalis ATCC 29212) [µg/mL] | Hypochromic effect H/%, ctDNA (calf thymus ctDNA) [%] | log Ks, ctDNA (calf thymus ctDNA) | MIC (P. aeruginosa ATCC 27853) [µg/mL] | ΔTm, polyA-polyU, r = 0.1 (polyA-polyU [3]) [°C] | ΔTm, polyA-polyU, r = 0.3 (polyA-polyU [3]; [7]) [°C] | melting point [°C] | log Ks [4] | MIC (E. coli ATCC 25925) [µg/mL] | MIC (K. pneumonia ATCC 700803) [µg/mL] | IC50 [6] [µM] | MIC (S. aureus ATCC 25923) [µg/mL] | MIC (A. baumannii ATCC 19606) [µg/mL] | MIC (S. aureus MSSA) [µg/mL] | ΔTm, ctDNA, r = 0.5 (ctDNA) [°C] | ΔTm, ctDNA, r = 0.7 (ctDNA) [°C] | ΔTm, ctDNA, r = 0.3 (ctDNA) [°C] | further results
Cl.Cl.N=C(N)c1ccc2[nH]c(-c3ccc(OCc4cn(-c5ccccc5Cl)nn4)cc3)nc2c1 [Compound 7c, 2–(4-((1–(2-Chlorophenyl)-1H-1,2,3-triazol-4-yl)methoxy)phenyl)-1H-benz[d]imidazole-5-carboximidamide dihydrochloride] | 38.9 | 5.21 | 256 | 64 | 36.3 | 6.24 | > 256 | 0.20 | 2.72 | 176 to 177 | 5.21 | 256 | > 256 | > 15 | 64 | > 256 | 32 | 3.20 | 3.77 | 2.35 | binding ([2]; pH 7, changes too small for accurate calculation, compound 14.8 µM): weak; ΔTm ([5]; error ±0.5, per base): 2.72 °C; MIC (S. aureus MRSA): 16 µg/mL
CC(C)NC(=N)c1ccc2[nH]c(-c3ccc(OCc4cn(-c5ccccc5Cl)nn4)cc3)nc2c1.Cl.Cl [Compound 8c, N-isopropyl-2–(4-((1–(2-chlorophenyl)-1H-1,2,3-triazol-4-yl)methoxy)phenyl)-1H-benz[d]imidazole-5-carboximidamide dihydrochloride] | 50.4 | 6.00 | 32 | 64 | 33.8 | 5.64 | > 256 | 0.76 | 0.58 | 210 to 213 | 6.00 | 256 | > 256 | > 15 | 32 | > 256 | 16 | 3.89 | 4.39 | 3.40 | log Ks [2]: 6.43; Hypochromic effect H/%, polyC-polyG (polyC-polyG): 5.31%; log Ks, polyC-polyG (polyC-polyG): 6.43; ΔTm, polyA-polyU, r = 0.5 (polyA-polyU [3]; r = 0.5, first melting midpoint): 1.12 °C; MIC (S. aureus MRSA): 8 µg/mL
Cl.Cl.Clc1ccccc1-n1cc(COc2ccc(-c3nc4cc(C5=NCCN5)ccc4[nH]3)cc2)nn1 [Compound 9c, 5–(4,5-Dihydro-1H-imidazol-2-yl)-2–(4-((1–(2-chlorophenyl)-1H-1,2,3-triazol-4-yl)methoxy)phenyl)-1H-benz[d]imidazole dihydrochloride] | 29.3 | 5.38 | 64 | 32 | 11.7 | 6.43 | > 256 | 2.85 | 4.27 | 194 to 196 | 5.38 | 256 | > 256 | > 15 | 128 | > 256 | 128 | 3.31 | 3.80 | 3.55 | log Ks [2]: 6.43; Hypochromic effect H/%, polyC-polyG (polyC-polyG): 5.34%; log Ks, polyC-polyG (polyC-polyG): 6.43; ΔTm, polyA-polyU, r = 0.3, second melting midpoint (polyA-polyU [3]; r = 0.3, footnote c: biphasic melting curve): 13.99 °C; ΔTm ([5]; error ±0.5, biphasic, second midpoint 13.99, per base): 4.27 °C; MIC (S. aureus MRSA): 8 µg/mL
